Inconclusive results are not listed. Calls of active or inactive are those of the source.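 Rule for the calls: active = sample lowering the cell viability signal whose fitted half-effect dose is at or below its top tested dose; inconclusive = flat fit with 30 to 70 percent loss, or poor fit; inactive = the rest, including effects in the wrong direction.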

Test system in the first experiment: not listed separately
Description: HEK293 cell cytotoxicity, dose response, cytotoxicity control, ATP luminescence, dry powder, Set6 (AID 743142). Particulars: HEK293T viability, ATP luminescence (CellTiter-Glo), 72 h; at 12 µM (top of the series). On the technique in general: In ATP-based viability assays light output follows the ATP content of the culture.
For `CC(NC(=O)CCNC(=O)c1ccc(Cl)cc1)c1ccc(F)cc1` (stereo unspecified), the activity change, negative = cytotoxicity is 41.6% (inactive).

The experiment is the same for the next values; noted with them: HEK293T viability, ATP luminescence (CellTiter-Glo), 72 h; at 26 µM (top of the series).
For `O=C(CCCNC(=O)c1ccc(C(F)(F)F)cc1)N[C@@H]1CCCc2ccccc21`, the activity change, negative = cytotoxicity is 49.1% (inactive).

Consider `O=C(CCCNC(=O)c1ccc(Cl)c(Cl)c1)N[C@@H]1CCCc2ccccc21`, for which the activity change, negative = cytotoxicity is 8.38% (inactive). `O=C(CCNC(=O)c1ccccc1Cl)NC1CCCc2ccccc21` (stereo unspecified): the activity change, negative = cytotoxicity was 10.9% (inactive). Turning to `CC(c1ccccc1)N(C)C(=O)CCNC(=O)c1ccc(Cl)cc1` (stereo unspecified), the activity change, negative = cytotoxicity is -5.44% (inactive). Take `NCCC(=O)N[C@@H]1CCCc2ccccc21`: the activity change, negative = cytotoxicity is 27.3% (inactive).

For the compound `COc1ccccc1C(C)NC(=O)CCNC(=O)c1ccc(Cl)cc1` (stereo unspecified), the activity change, negative = cytotoxicity was -9.14% (inactive). As to `O=C(CCCNC(=O)c1ccc(Cl)cc1)N[C@@H]1CCCc2ccccc21`, the activity change, negative = cytotoxicity is 2.4% (inactive).

As for `O=C(CCNC(=O)c1ccc(Cl)cc1)NC1CCCCC1`, the activity change, negative = cytotoxicity is 13% (inactive). In the case of `COc1ccccc1C(=O)NCCC(=O)NC1CCCc2ccccc21` (stereo unspecified), the activity change, negative = cytotoxicity was -2.09% (inactive). Take `C[C@@H](NC(=O)CCNC(=O)c1ccc(Cl)cc1)c1ccccc1`: the activity change, negative = cytotoxicity was 19.9% (inactive).

For the compound `Cc1cccc(C(=O)NCCC(=O)NC2CCCc3ccccc32)c1` (stereo unspecified), the activity change, negative = cytotoxicity was -15.8% (inactive). Regarding `O=C(CNC(=O)c1ccc(C(F)(F)F)cc1)N[C@@H]1CCCc2ccccc21`, the activity change, negative = cytotoxicity was -8.54% (inactive). For `CC(=O)NCCC(=O)N[C@@H]1CCCc2ccccc21`, the activity change, negative = cytotoxicity is 10.6% (inactive). Turning to `CC(CC(=O)NC1CCCc2ccccc21)NC(=O)c1ccccc1` (stereo unspecified), the activity change, negative = cytotoxicity is -38.5% (inactive). As to `CC(NC(=O)CCNC(=O)c1ccc(Cl)cc1)c1ccc2c(c1)OCO2` (stereo unspecified), the activity change, negative = cytotoxicity is 21.1% (inactive). For the compound `COc1cc(C(=O)NCCC(=O)NC2CCCc3ccccc32)cc(OC)c1OC` (stereo unspecified), the activity change, negative = cytotoxicity is -40.5% (inactive).

Turning to `O=C(CNC(=O)c1ccc(Cl)cc1)N[C@@H]1CCCc2ccccc21`, the activity change, negative = cytotoxicity is -4.76% (inactive). As to `O=C(NC1CCc2ccccc21)C1CCCN(C(=O)c2ccc(Cl)cc2)C1` (stereo unspecified), the activity change, negative = cytotoxicity was -34.8% (inactive). Take `O=C(CCNC(=O)c1ccc(Cl)cc1)N[C@H]1CCCc2ccccc21`: the activity change, negative = cytotoxicity is -23.6% (inactive).

`CC(CC(=O)N(C)C1CCCc2ccccc21)NC(=O)c1ccccc1` (stereo unspecified): the activity change, negative = cytotoxicity is -30% (inactive). Regarding `O=C(CCCNC(=O)c1ccc(OC(F)(F)F)cc1)N[C@@H]1CCCc2ccccc21`, the activity change, negative = cytotoxicity was 48.5% (inactive). Turning to `O=C(CNC(=O)c1ccc(Cl)c(Cl)c1)N[C@@H]1CCCc2ccccc21`, the activity change, negative = cytotoxicity was -24.4% (inactive). For the compound `O=C(CNC(=O)c1ccc(OC(F)(F)F)cc1)N[C@@H]1CCCc2ccccc21`, the activity change, negative = cytotoxicity is 1.28% (inactive). On the same count and under the same terms, in the case of `CN(C(=O)CCNC(=O)c1ccc(F)cc1F)C1CCCc2ccccc21` (stereo unspecified) it was 7.5% (inactive); in that of `CC(NC(=O)C1CCCN(C(=O)c2ccc(Cl)cc2)C1)c1ccccc1` (stereo unspecified), 64.4% (inactive); in that of `O=C(CCNC(=O)c1ccccc1)N[C@@H]1CCCc2ccccc21`, -39.6% (inactive). Still for that read-out and setting: in the case of `O=C(NC1CCOc2ccccc21)C1CCCN(C(=O)c2ccc(Cl)cc2)C1` (stereo unspecified) it was -5.89% (inactive); in that of `CC(C)(C)OC(=O)NCCC(=O)N[C@H]1CCCc2ccccc21`, -17.3% (inactive). Turning to `CC(C)(C)OC(=O)NCCC(=O)N[C@@H]1CCCc2ccccc21`, the activity change, negative = cytotoxicity is -2.95% (inactive).

For the next experiment, the system named is HEK293T viability, ATP luminescence (CellTiter-Glo), 72 h. The description is as above.
Details: not given
A word on the AC50: it is the concentration at which the activity in the assay is half-maximal. Regarding `O=C(CCNC(=O)c1ccc(Cl)cc1)NC1CCCc2ccccc21` (stereo unspecified), the AC50 was 7.73 µM.

The values are drawn from PubChem BioAssay AID743142 (Broad Institute, 2013).
